Measured values published in US5859037A, “Sulfonylurea-glitazone combinations for diabetes” (Warner-Lambert Company, priority 1997, dated 1999).
“Also recorded” adds a separate entry of the source. Where two headings read alike, the source gives them in different places. One block for each molecule: values may come before it.

Experiments:
[1] = test system: non-insulin dependent diabetes mellitus (NIDDM); assay: Glycemic control (FSG, HbA1c, responders) in 52-week double-blind clinical study; assay type: in vivo, patients
Text: The method of treating diabetes employing a combination of a sulfonylurea and a glitazone has been established in a long-term controlled clinical evaluation. The study determined the efficacy and safety of troglitazone alone and in combination with the sulfonylurea glyburide for the treatment of non-insulin dependent diabetes mellitus (NIDDM). This study targeted the segment of the NIDDM population in which the disease state has progressed to a point where maximum doses of sulfonylureas no longer produce adequate glycemic control. […] Since the unstimulated (absence of sulfonylurea) insulin secretory capacity of the beta cells is very low in this population, reversing insulin resistance alone would be of partial benefit. Therefore, maintaining a level of stimulated insulin secretion with a sulfonylurea while adding troglitazone to improve insulin sensitivity could provide a level of glycemic control unattainable by either medication alone. […] Long-term safety was also an objective of this study, assessed by adverse events and clinical laboratory data. This was a 12-month, double-blind, randomized, parallel-group, active-control, multicenter study design (FIG. 1). […] The primary efficacy parameters included endpoints related to glucose homeostasis: FSG and HbA1c. The change from baseline in these parameters at Week 52 compared to active control (glyburide) was the primary measure of efficacy. For patients terminating early from the study, their last observation was carried forward (LOCF) to Week 52. A decrease in these parameters was indicative of an improvement in glycemic control. Efficacy analysis was performed on 2 patient populations, intent-to-treat and completers. […] Patients withdrawing from the study before Week 52 were included in the analysis using the LOCF procedure; the last measurement on treatment was substituted for the missing Week 52 measurement. The intent-to-treat patient sample was the primary sample for assessing efficacy. Completers comprised patients in the intent-to-treat sample who completed Week 52. The analysis of change from baseline to Week 52 was performed using analysis of covariance (ANCOVA). The primary model included effects due to treatment and center and baseline as covariate. Treatment-by-baseline and treatment-by-center interactions were also examined in supplemental models. For the primary comparisons of glyburide versus each combination, step-down tests for linear trend in dose response were performed based on the primary model. For the remaining primary pairwise comparisons of glyburide versus each monotherapy, t-tests were performed using the MSE from the analysis of covariance (with a Bonferroni-Holm adjustment). For all comparisons with glyburide, 95 confidence intervals are provided using Dunnett's test. […] For each patient, the baseline measurement for a given parameter was defined as the measurement at Week 0. […] The frequency distribution (number and percentage) of responders were provided by treatment group and visit. For the set of primary treatment comparisons concerning glyburide versus combination therapy, step-down comparisons of responders in each treatment group versus the glyburide group were performed by sequential application of the Cochran-Mantel-Haenszel (CMH) test for linear trend with study centers as strata. […] The CMH test for general association were also used to perform the secondary treatment comparisons as supplemental analysis.

[2] = Body weight in clinical study; assay type: in vivo, patients; details: Month 12; for Body weight, Adjusted Mean Change From Baseline (SE): ITT; for mean decrease in body weight from baseline: monotherapy (troglitazone: range over doses)
Text: This was a 12-month, double-blind, randomized, parallel-group, active-control, multicenter study design (FIG. 1). […] Patients were instructed to fast overnight prior to visits requiring specimen collection.

[3] = Safety: adverse events and clinical laboratory measurements; assay type: in vivo, patients
Method: A complete physical examination and ECG were performed during screening and at the end of the study. Clinical laboratory parameters and vital signs including blood pressure were monitored throughout the study for safety reasons. Adverse events were recorded during clinic visits and evaluated by the investigator for intensity and relationship to study drug. Reduction in the daily dose of micronized glyburide could occur in cases of documented hypoglycemia.
All patients randomized to treatment were included in all safety evaluations.
Hypoglycemia, defined as an FSG <50 mg/dL (verified laboratory value), was to be recorded as an adverse event.
Adverse events that were treatment emergent (not present at baseline) are summarized in the following section using a modified COSTART dictionary. If, however, an adverse event present at baseline increased in intensity or frequency during treatment, the event was included in the summaries. Each patient reporting an adverse event was counted only once for that event regardless of the number of times the adverse event was reported. Associated adverse events were those considered by the investigator to be possibly, probably, or definitely related to study therapy.
Baseline clinical laboratory parameters were compared with values at the end of the study (last visit) to identify any abnormal trends. The percent of patients with increases or decreases in laboratory values were calculated based on the number of patients at risk for changes outside of the reference range; i.e., patients with low or high values at baseline were not considered at risk for a decrease or increase, respectively.
Laboratory results were then reviewed for these particular patients to determine which patients actually had clinically important changes in a given laboratory parameter.

[4] = test system: postprandial glucose tolerance; assay: 2-hour meal tolerance test (postprandial glucose, insulin, C-peptide AUC); assay type: in vivo, patients; details: Month 12, vs glyburide, p ≤0.05; all combination doses and 600 mg troglitazone monotherapy
Method: The effect of treatment on the pattern of postprandial glucose tolerance (standard 2-hour meal tolerance test) was determined in a subset of patients.
A 2-hour meal tolerance test to assess postprandial glucose and insulin excursions in response to a premeasured meal (breakfast) was conducted in a subset of patients at baseline, Week 24, and at the end of treatment. […] Additional parameters included total insulin and C-peptide. Analyses of the meal tolerance parameters were based on observations at the end of treatment; observations from Week 24 were not carried forward.
Summary statistics for glucose, insulin, and C-peptide levels every 30 minutes for 2 hours were provided at baseline, and Months 6 and 12.
The change from baseline in each response variable was compared between treatment groups using analysis of covariance. The analysis included all patients who had baseline and Month 12 test data. The primary model included effects due to treatment and center and baseline as covariate. The 95% confidence interval for the treatment difference based on the primary model was provided for each pairwise comparison of treatment groups.
Meal tolerance testing was performed in a subset of patients at baseline and at Months 6 and 12. Postprandial glucose, insulin, and C-peptide levels were determined at 30, 60, 90, and 120 minutes after a standard meal (Sustacal HC) (Table 13).

[5] = Trough plasma concentrations of troglitazone; assay type: in vivo, patients; details: Week 12; for concentration at 2016 h: human, plasma, po, alone or + glyburide, read-out: Mean (% RSD) Trough Plasma Concentration of Troglitazone
Method: Trough plasma concentrations of troglitazone were determined at Week 12. Blood samples (7 mL) were collected in heparinized glass tubes. Following centrifugation, plasma samples were transferred to plastic tubes and stored at -20° C. until assayed. Plasma samples were assayed at Corning Hazleton, Inc., PO Box 7545, Madison, Wis., 53707, using a validated liquid chromatographic method with electrochemical detection. The minimum quantitation limit for troglitazone was 5 ng/mL. Concentrations below the limit of quantitation were reported as zero. The analysts remained blinded to the treatment randomization code during sample analysis.

[6] = patients studied to date; cited from earlier work
[7] = Completers, Week 52, glyburide monotherapy (active control)
[8] = ITT, Week 52, glyburide (active control)
[9] = Completers, Week 52, troglitazone 200 mg, or 200 mg/12 mg in combination
[10] = Completers, Week 52, troglitazone 200 mg, or 200 mg/12 mg in combination, *p ≤ 0.05, **p ≤ 0.0001
[11] = Completers, Week 52, troglitazone 400 mg, or 400 mg/12 mg in combination
[12] = Completers, Week 52, troglitazone 600 mg, or 600 mg/12 mg in combination
[13] = ITT, Week 52, troglitazone 200 mg, or 200/12 mg in combination, *p ≤ 0.001 vs glyburide
[14] = ITT, Week 52, troglitazone 400 mg, or 400 mg/12 mg in combination, *p ≤ 0.001, **p ≤ 0.0001
[15] = ITT, Week 52, troglitazone 400 mg, or 400/12 mg in combination, *p ≤ 0.001 vs glyburide
[16] = ITT, Week 52, troglitazone 600 mg, or 600 mg/12 mg in combination, *p ≤ 0.001, **p ≤ 0.0001
[17] = ITT, Week 52, troglitazone 600 mg, or 600/12 mg in combination, *p ≤ 0.001 vs glyburide

Structure (SMILES): COc1ccc(Cl)cc1C(=O)NCCc1ccc(S(=O)(=O)NC(=O)NC2CCCCC2)cc1 [Glyburide]
- Fasting Serum Glucose, Adjusted Mean Change From Baseline (SE) [1, 7]: 13.1 (8.6) mg/dL
- Hemoglobin A1c, Adjusted Mean Change From Baseline (SE) [1, 7]: 0.78 (0.27) %
- Fasting Serum Glucose, Adjusted Mean Change From Baseline (SE) ([1]; ITT, Week 52 (Month 12), glyburide monotherapy (active control)): 22.7 (6.9) mg/dL
- ≥30 mg/dL Reduction in FSG, Responders, N (%) [1, 8]: 10 (13) N (%)
- ≥1% Reduction in HbA1c, Responders, N (%) [1, 8]: 4 (5) N (%)
- Hemoglobin A1c, Adjusted Mean Change From Baseline (SE) ([1]; ITT, Week 52, glyburide monotherapy (active control)): 0.90 (0.20) %
- Hemoglobin A1c, Adjusted Mean Change From Baseline (SE) ([1]; ITT, Week 52, glyburide monotherapy (active control), listed as glyburide): 0.90%
- patients with HbA1c of ≤7% ([1]; Week 52, glyburide monotherapy): 1%
- patients with HbA1c of ≤8% ([1]; end of study, glyburide (active control)): 10%
- Body weight, Adjusted Mean Change From Baseline (SE) ([2]; glyburide (active control)): -1.3 lbs
- mean decrease in body weight from baseline [2]: 1 lbs
- associated adverse events, incidence ([3]; overall, all doses): 10%
- patients with adverse events ([3]; overall, all doses): 90%

- concentration at 2016 h ([5]; 200 mg QD): 145 ng/mL
- concentration at 2016 h ([5]; 400 mg QD): 238 ng/mL
- concentration at 2016 h ([5]; 600 mg QD): 285 ng/mL
Structure (SMILES): Cc1c(C)c2c(c(C)c1O)CCC(C)(COc1ccc(CC3SC(=O)NC3=O)cc1)O2 (stereo not shown) [Troglitazone]
- Fasting Serum Glucose, Adjusted Mean Change From Baseline (SE) [1, 9]: 13.4 (12.0) mg/dL
- Hemoglobin A1c, Adjusted Mean Change From Baseline (SE) [1, 9]: 0.55 (0.38) %
- Fasting Serum Glucose, Adjusted Mean Difference From Glyburide Monotherapy (SE) [1, 10]: 0.3 (14.6) mg/dL
- Hemoglobin A1c, Adjusted Mean Difference From Glyburide Monotherapy (SE) [1, 10]: -0.23 (0.46) %
- Fasting Serum Glucose, Adjusted Mean Change From Baseline (SE) [1, 11]: -20.5 (9.4) mg/dL
- Hemoglobin A1c, Adjusted Mean Change From Baseline (SE) [1, 11]: -0.25 (0.29) %
- Fasting Serum Glucose, Adjusted Mean Change From Baseline (SE) [1, 12]: -11.7 (9.8) mg/dL
- Hemoglobin A1c, Adjusted Mean Change From Baseline (SE) [1, 12]: -0.26 (0.30) %
- Fasting Serum Glucose, Adjusted Mean Difference From Glyburide Monotherapy (SE) ([1]; Completers, Week 52, troglitazone 600 mg, or 600 mg/12 mg in combination, *p ≤ 0.05, **p ≤ 0.0001): -24.8 (12.6) mg/dL
- Fasting Serum Glucose, Adjusted Mean Change From Baseline (SE) ([1]; ITT, Week 52 (Month 12), troglitazone 200 mg, or 200 mg/12 mg in combination): 42.4 (7.0) mg/dL
- Fasting Serum Glucose, Adjusted Mean Change From Baseline (SE) ([1]; ITT, Week 52 (Month 12), troglitazone 400 mg, or 400 mg/12 mg in combination): 20.6 (7.0) mg/dL
- Fasting Serum Glucose, Adjusted Mean Change From Baseline (SE) ([1]; ITT, Week 52 (Month 12), troglitazone 600 mg, or 600 mg/12 mg in combination): 11.1 (7.1) mg/dL
- FSG versus glyburide (result in words) ([1]; ITT, Week 52, 400 and 600 mg troglitazone monotherapy): these decreases were not significant
- Hemoglobin A1c, Adjusted Mean Change From Baseline (SE) ([1]; ITT, Week 52, troglitazone 200 mg, or 200 mg/12 mg in combination): 1.92 (0.20) %
- Fasting Serum Glucose, Adjusted Mean Difference From Glyburide Monotherapy (SE) ([1]; ITT, Week 52, troglitazone 200 mg, or 200 mg/12 mg in combination, *p ≤ 0.001, **p ≤ 0.0001): 19.6 (9.7) mg/dL
- Hemoglobin A1c, Adjusted Mean Change From Baseline (SE) ([1]; ITT, Week 52, troglitazone 200 mg, or 200 mg/12 mg in combination, listed as troglitazone): 1.92%
- ≥30 mg/dL Reduction in FSG, Responders, N (%) [1, 13]: 11 (14) N (%)
- ≥1% Reduction in HbA1c, Responders, N (%) [1, 13]: 3 (4) N (%)
- Hemoglobin A1c, Adjusted Mean Change From Baseline (SE) ([1]; ITT, Week 52, troglitazone 400 mg, or 400 mg/12 mg in combination): 0.85 (0.20) %
- Fasting Serum Glucose, Adjusted Mean Difference From Glyburide Monotherapy (SE) [1, 14]: -2.2 (9.7) mg/dL
- Hemoglobin A1c, Adjusted Mean Difference From Glyburide Monotherapy (SE) [1, 14]: -0.05 (0.28) %
- ≥30 mg/dL Reduction in FSG, Responders, N (%) [1, 15]: 20 (26) N (%)
- ≥1% Reduction in HbA1c, Responders, N (%) [1, 15]: 13 (17) N (%)
- Hemoglobin A1c, Adjusted Mean Change From Baseline (SE) ([1]; ITT, Week 52, troglitazone 600 mg, or 600 mg/12 mg in combination): 0.93 (0.20) %
- Fasting Serum Glucose, Adjusted Mean Difference From Glyburide Monotherapy (SE) [1, 16]: -11.6 (9.7) mg/dL
- Hemoglobin A1c, Adjusted Mean Difference From Glyburide Monotherapy (SE) [1, 16]: 0.03 (0.28) %
- ≥30 mg/dL Reduction in FSG, Responders, N (%) [1, 17]: 18 (24) N (%)
- ≥1% Reduction in HbA1c, Responders, N (%) [1, 17]: 8 (11) N (%)
- HbA1c versus glyburide monotherapy (result in words) ([1]; completers, 400 and 600 mg troglitazone monotherapy, p ≤0.05): HbA1c decreased significantly (p ≤0.05) compared with glyburide monotherapy
- mean glucose AUC(0-2 hr) (result in words) [4]: decreased significantly (p ≤0.05) compared with glyburide
- Body weight, Adjusted Mean Change From Baseline (SE) ([2]; troglitazone 200 mg, or 200/12 mg in combination): -6.9 lbs
- Body weight, Adjusted Mean Change From Baseline (SE) ([2]; troglitazone 400 mg, or 400/12 mg in combination): -3.9 lbs
- Body weight, Adjusted Mean Change From Baseline (SE) ([2]; troglitazone 600 mg, or 600/12 mg in combination): -0.8 lbs
- mean decrease in body weight from baseline [2]: 1 to 7 lbs
- trough plasma troglitazone concentrations (result in words) ([5]; dose dependence, mono versus combination): Mean trough troglitazone concentrations generally increased with increasing troglitazone doses
- patients with mildly elevated liver enzymes (<3×upper normal limit) at end of study ([3]; 200 mg monotherapy): one
- adverse event profile versus glyburide monotherapy (result in words) ([3]; human, in vivo): Most adverse events occurred at the lower incidence in patients treated with troglitazone monotherapy compared with the patients treated with glyburide monotherapy
- hematological parameters (result in words) ([3]; human, in vivo): no patient experienced clinically important decreases in any hematological parameter that can be directly attributable to troglitazone
- patients with adverse events ([3]; overall, all doses): 70%
- patients with mildly transient decreases in hemoglobin/hematocrit which returned to baseline ([3]; remaining on drug, mono: two on 400 mg, one on 600 mg, combination: three on 400 mg/12 mg, one on 600 mg/12 mg): 3 patients
- tolerability (result in words) ([3]; throughout the study): well-tolerated throughout the study; also recorded: well-tolerated during the study
- hypoglycemia (result in words) [6]: has not caused hypoglycemia
